Data published in patent US11986493B2 (University of Pittsburgh—Of the Commonwealth System of …, priority 2013, dated 2024).

System: subjects with pulmonary hypertension (WHO group I PAH, WHO group III PH)
Assay: Right heart catheterization: right heart/pulmonary artery hemodynamics, thermodilution cardiac output, PVR and SVR after inhaled NO and nebulized nitrite
Format: in vivo, human
Description: A total of 6 subjects with a confirmed diagnosis of pulmonary hypertension and meeting all inclusion/exclusion criteria were enrolled in the study which entailed a single right heart catheterization. The study population consisted of subjects with WHO group I PAH (n=3) and subjects with WHO group III PH (n=3) which received the dose escalation paradigm:
During the study right heart/pulmonary artery hemodynamics were measured as well as noninvasive systemic blood pressure monitoring and simultaneous RV echocardiography. Subjects were tested for the changes in pulmonary vascular resistance (PVR) measured by right heart catheterization and using thermodilution cardiac output measurement at time zero, at times 15, 30 and 45 minutes after completion of each nebulization dose.
Following right heart catheterization, the patient was stabilized for 20 minutes. Baseline blood collections and hemodynamic measurements were performed, followed by treatment with 40 ppm inhaled NO gas for […] with repeat hemodynamic measurements performed.
After stopping inhaled NO gas, a single dose of sildenafil was given if patients were on background sildenafil therapy at previously prescribed doses. 45-minutes after sildenafil dose baseline hemodynamics were performed.
Subjects were monitored carefully during and after the study treatment.
The study was conducted at the 3rd FL Catheterization Laboratory at Presbyterian Hospital of the University of Pittsburgh Medical Center (UPMC). Baseline vasoreactivity was recorded after Inhaled NO at 40 ppm for […]. […] Subjects were instructed to breathe as calmly, and deeply as possible until no more mist was formed in the nebulizer chamber. Subjects were also instructed to hold their breath for approximately 10 seconds after inhalation to allow the study drug to reach deep into the lungs.

[1] = Patient 1, nitrite 45 mg inhaled, 15 min
[2] = Patient 1, nitrite 45 mg inhaled, 30 min
[3] = Patient 1, nitrite 45 mg inhaled, 45 min
[4] = Patient 1, nitrite 45 mg inhaled, 60 min
[5] = Patient 1, nitrite 90 mg inhaled, 15 min
[6] = Patient 1, nitrite 90 mg inhaled, 30 min
[7] = Patient 1, nitrite 90 mg inhaled, 45 min
[8] = Patient 1, nitrite 90 mg inhaled, 60 min
[9] = Patient 2, nitrite 45 mg inhaled, 15 min
[10] = Patient 2, nitrite 45 mg inhaled, 30 min
[11] = Patient 2, nitrite 45 mg inhaled, 45 min
[12] = Patient 2, nitrite 45 mg inhaled, 60 min
[13] = Patient 2, nitrite 90 mg inhaled, 15 min
[14] = Patient 2, nitrite 90 mg inhaled, 30 min
[15] = Patient 2, nitrite 90 mg inhaled, 45 min
[16] = Patient 2, nitrite 90 mg inhaled, 60 min
[17] = Patient 3, nitrite 45 mg inhaled, 15 min
[18] = Patient 3, nitrite 45 mg inhaled, 30 min
[19] = Patient 3, nitrite 45 mg inhaled, 45 min
[20] = Patient 3, nitrite 45 mg inhaled, 60 min
[21] = Patient 3, nitrite 90 mg inhaled, 15 min
[22] = Patient 3, nitrite 90 mg inhaled, 30 min
[23] = Patient 3, nitrite 90 mg inhaled, 45 min
[24] = Patient 3, nitrite 90 mg inhaled, 60 min

Question: Which results are given for `O=NO` [nitrite, sodium nitrite]?
Answer: CI [1]: 2.47; CO [1]: 4.77; PA sat [1]: 66; PAD [1]: 35; PAS [1]: 93; PCWP [1]: 11; PVR [1]: 9.09; PVR/SVR [1]: 0.58; RA [1]: 9; RVD [1]: 8; RVS [1]: 98; SVR [1]: 15.66; TPR [1]: 11.39; mPAP [1]: 54.34; CI [2]: 2.65; CO [2]: 5.12; PA sat [2]: 68; PAD [2]: 36; PAS [2]: 98; PCWP [2]: 7; PVR [2]: 9.70; PVR/SVR [2]: 0.64; RA [2]: 10; RVD [2]: 10; RVS [2]: 94; SVR [2]: 15.24; TPR [2]: 11.07; mPAP [2]: 56.67; CI [3]: 2.51; CO [3]: 4.85; PA sat [3]: 63; PAD [3]: 38; PAS [3]: 100; PCWP [3]: 9; PVR [3]: 10.24; PVR/SVR [3]: 0.66; RA [3]: 9; RVD [3]: 9; RVS [3]: 95; SVR [3]: 15.53; TPR [3]: 12.10; mPAP [3]: 58.67; CI [4]: 3.11; CO [4]: 6.01; PA sat [4]: 62; PAD [4]: 36; PAS [4]: 98; PCWP [4]: 7; PVR [4]: 8.27; PVR/SVR [4]: 0.63; RA [4]: 9; RVD [4]: 9; RVS [4]: 94; SVR [4]: 13.15; TPR [4]: 9.43; mPAP [4]: 56.67; CI [5]: 2.93; CO [5]: 5.65; PA sat [5]: 64; PAD [5]: 32; PAS [5]: 92; PCWP [5]: 2; PVR [5]: 8.85; PVR/SVR [5]: 0.68; RA [5]: 3; RVD [5]: 3; RVS [5]: 96; SVR [5]: 13.10; TPR [5]: 9.20; mPAP [5]: 52.01; CI [6]: 2.99; CO [6]: 5.77; PA sat [6]: 61; PAD [6]: 32; PAS [6]: 92; PCWP [6]: 2; PVR [6]: 8.67; PVR/SVR [6]: 0.68; RA [6]: 4; RVD [6]: 3; RVS [6]: 91; SVR [6]: 12.83; TPR [6]: 9.01; mPAP [6]: 52.01; CI [7]: 3.22; CO [7]: 6.22; PA sat [7]: 62; PAD [7]: 31; PAS [7]: 90; PCWP [7]: 2; PVR [7]: 7.83; PVR/SVR [7]: 0.67; RA [7]: 3; RVD [7]: 3; RVS [7]: 92; SVR [7]: 11.63; TPR [7]: 8.15; mPAP [7]: 50.67; CI [8]: 3.14; CO [8]: 6.06; PA sat [8]: 62; PAD [8]: 30; PAS [8]: 90; PCWP [8]: 3; PVR [8]: 7.76; PVR/SVR [8]: 0.61; RA [8]: 3; RVD [8]: 2; RVS [8]: 88; SVR [8]: 12.65; TPR [8]: 8.25; mPAP [8]: 50.01; CI [9]: 3.67; CO [9]: 7.08; PAD [9]: 19; PAS [9]: 57; PCWP [9]: 8; PVR [9]: 3.34; PVR/SVR [9]: 0.25; RA [9]: 6; SVR [9]: 13.28; TPR [9]: 4.47; mPAP [9]: 31.67; CI [10]: 3.88; CO [10]: 7.48; PAD [10]: 22; PAS [10]: 64; PCWP [10]: 9; PVR [10]: 3.61; PVR/SVR [10]: 0.30; RA [10]: 6; SVR [10]: 11.99; TPR [10]: 4.81; mPAP [10]: 36.01; CI [11]: 3.93; CO [11]: 7.58; PAD [11]: 21; PAS [11]: 62; PCWP [11]: 8; PVR [11]: 3.52; PVR/SVR [11]: 0.29; RA [11]: 3; SVR [11]: 12.23; TPR [11]: 4.57; mPAP [11]: 34.67; CI [12]: 3.89; CO [12]: 7.5; PAD [12]: 21; PAS [12]: 64; PCWP [12]: 8; PVR [12]: 3.65; PVR/SVR [12]: 0.32; RA [12]: 4; SVR [12]: 11.38; TPR [12]: 4.71; mPAP [12]: 35.34; CI [13]: 3.81; CO [13]: 7.35; PAD [13]: 20; PAS [13]: 57; PCWP [13]: 8; PVR [13]: 3.31; PVR/SVR [13]: 0.25; RA [13]: 2; SVR [13]: 13.06; TPR [13]: 4.40; mPAP [13]: 32.34; CI [14]: 4.60; CO [14]: 8.87; PAD [14]: 22; PAS [14]: 60; PCWP [14]: 6; PVR [14]: 3.23; PVR/SVR [14]: 0.31; RA [14]: 3; SVR [14]: 10.41; TPR [14]: 3.91; mPAP [14]: 34.67; CI [15]: 4.19; CO [15]: 8.09; PAD [15]: 21; PAS [15]: 62; PCWP [15]: 7; PVR [15]: 3.42; PVR/SVR [15]: 0.28; RA [15]: 3; SVR [15]: 12.12; TPR [15]: 4.29; mPAP [15]: 34.67; CI [16]: 4.56; CO [16]: 8.8; PAD [16]: 22; PAS [16]: 68; PCWP [16]: 6; PVR [16]: 3.56; PVR/SVR [16]: 0.33; RA [16]: 5; RVD [16]: 3; RVS [16]: 62; SVR [16]: 10.76; TPR [16]: 4.24; mPAP [16]: 37.34; CI [17]: 3.19; CO [17]: 6.63; PAD [17]: 19; PAS [17]: 80; PCWP [17]: 14; PVR [17]: 3.82; PVR/SVR [17]: 0.45; RA [17]: 12; SVR [17]: 8.55; TPR [17]: 5.93; mPAP [17]: 39.34; CI [18]: 3.08; CO [18]: 6.4; PAD [18]: 20; PAS [18]: 70; PCWP [18]: 15; PVR [18]: 3.39; PVR/SVR [18]: 0.37; RA [18]: 10; SVR [18]: 9.22; TPR [18]: 5.73; mPAP [18]: 35.67; CI [19]: 3.17; CO [19]: 6.6; PAD [19]: 20; PAS [19]: 74; PCWP [19]: 14; PVR [19]: 3.64; PVR/SVR [19]: 0.42; RA [19]: 13; SVR [19]: 8.64; TPR [19]: 5.76; mPAP [19]: 38.01; CI [20]: 3.07; CO [20]: 6.39; PAD [20]: 20; PAS [20]: 70; PCWP [20]: 14; PVR [20]: 3.55; PVR/SVR [20]: 0.40; RA [20]: 13; SVR [20]: 8.92; TPR [20]: 5.74; mPAP [20]: 36.67; CI [21]: 3.69; CO [21]: 7.67; PAD [21]: 19; PAS [21]: 69; PCWP [21]: 13; PVR [21]: 2.96; PVR/SVR [21]: 0.40; RA [21]: 12; SVR [21]: 7.48; TPR [21]: 4.65; mPAP [21]: 35.67; CI [22]: 2.41; CO [22]: 5.01; PAD [22]: 17; PAS [22]: 73; PCWP [22]: 11; PVR [22]: 4.92; PVR/SVR [22]: 0.39; RA [22]: 10; SVR [22]: 12.51; TPR [22]: 7.12; mPAP [22]: 35.67; CI [23]: 2.94; CO [23]: 6.11; PAD [23]: 19; PAS [23]: 71; PCWP [23]: 12; PVR [23]: 3.98; PVR/SVR [23]: 0.42; RA [23]: 11; SVR [23]: 9.55; TPR [23]: 5.95; mPAP [23]: 36.34; CI [24]: 3.34; CO [24]: 6.95; PAD [24]: 20; PAS [24]: 72; PCWP [24]: 14; PVR [24]: 3.36; PVR/SVR [24]: 0.36; RA [24]: 9; RVD [24]: 8; RVS [24]: 71; SVR [24]: 9.31; TPR [24]: 5.37
